# Test results published in publication PMC7180728, “Novel Anthraquinone Compounds Inhibit Colon Cancer Cell Proliferation via the Reactive Oxygen Species/JNK Pathway” (Molecules, 2020).
# Tests used:
# Type in all cases: cell-based, human
# [1] = tested on: mitochondrial membrane potential of HCT116 cells; experiment: Mitochondrial membrane potential, JC-1 flow cytometry; settings: 24 h
# Description: Decreased mitochondrial membrane potential is a hallmark of early cell apoptosis, and a decrease in mitochondrial membrane potential leads to the release of certain mitochondrial proteins, such as cytochrome c, which mediate apoptosis. Therefore, we examined changes in mitochondrial membrane potential by flow cytometry. HCT116 cells were treated with 8a (10 or 20 μg/mL) for 24 h and then stained with 2 μg/mL JC-1 for 30 min prior to flow cytometric analysis. Green /orange fluorescence ratio of JC-1, compare with control, is 200% and 494.4%, respectively (Figure 8E,F). […] During apoptosis, mitochondrial cytochrome C is released into the cytoplasm and triggers the activation cascade of caspase. HCT116 cells were collected after 8a treatment, cytoplasmic protein and mitochondrial protein were extracted. The levels of cytochrome c in the cytoplasm and mitochondria were detected by Western blotting. After treatment of HCT116 cells with 8a (10 or 20 μg/mL) for 24 h, cytoplasmic levels of cytochrome c increased, while the levels in the mitochondria decreased.
# The 1×10^4 cells were treated with different concentrations of 8a for 24 h. Cells were then incubated with 500 μL JC-1 ([…]) for 30 min at 37 °C in the dark. The level of mitochondrial membrane potential depolarization was measured by flow cytometry. Data were analyzed using the Cell Quest program (BD, New York, The United States).
# SGC-7901 = experiment: MTT cell proliferation assay, SGC-7901; settings: Homo sapiens, SGC-7901, 48 h, SGC-7901 gastric cancer, read-out: IC50
# Description: (§1) The effects of the synthesized amide anthraquinone derivatives on the proliferative activity of eight human cancerous cell lines (EC9706, MCF-7, SGC-7901, HepG2, QBC939, HeLa, HCT116 and SW480) in addition to two normal human cell lines (colorectal FHC and liver HL7702) were evaluated using the standard MTT assay.
# (§2) The human esophageal cancer cell line EC9706 was obtained from Cancer Hospital and Institute by Prof. Ming Rong Wang, Chinese Academy Medical of Sciences. The human colorectal carcinoma cell lines HCT116 and SW480, hepatoma cell line HepG2, cervical carcinoma cell line HeLa, breast cancer cell line MCF-7, gastric cancer cell line SGC-7901, cholangiocarcinoma cell line QBC939, normal fetal colon cell line FHC and liver cell line HL-7702 were obtained from the Cell Bank of the Shanghai Chinese Academy of Sciences. All cells were cultured in RPMI 1640 medium containing 100 U/mL penicillin and streptomycin and 10% fetal bovine serum and maintained at 37°C under a 5% CO2 atmosphere.
# (§3) We analyzed the inhibitory effects of eight anthraquinone-amino acid derivatives on the proliferation of eight tumor cell lines and two normal cell lines in vitro using MTT assays. Cells were added to a 96-well plate with (5,000 cells per well in 100 µL RPMI-1640 medium). Cells were treated with different concentrations (10–100 μg/mL) of 8a–8h for 48 h and then incubated with 20 μL MTT (5 mg/mL) for another 4 h at 37°C. DMSO (150 μL) was then added to each well to dissolve the formazan crystals. The absorbance of each well was read at 490 nm on a microtiter plate ELISA reader. The mean values were obtained from a minimum of three parallel experiments. IC50 values were calculated.
# HCT116 cells = experiment: MTT cell viability with or without zVAD-FMK; settings: Homo sapiens, HCT-116, 8a 20 μg/mL alone, 24 h
# From the text: (§4) Caspases represent a key molecular group in the regulation of apoptosis. In caspases, there is an upstream and downstream relationship between the initiator of apoptosis and executioner. Caspase 3 is one of the key executers of apoptosis, as it is either partially or totally responsible for the proteolytic cleavage of many key proteins. For example, when caspase 9 is activated, it activates caspase 3, which ultimately triggers cell apoptosis. After detecting the expression of the corresponding Bcl-2 family proteins after 8a treatment by western blotting, we went on to detect the expression levels of PARP, caspase 9, cleaved caspase 9, caspase 3, and cleaved caspase 3 proteins. […] After 24 h of treatment with zVAD-FMK, cell viability is 93%.
# Figure 7 Effect of 8a on apoptosis-related protein expression. […] PARP, caspase 3, cleaved caspase 3, caspase 9, cleaved caspase 9, Bcl-2, phosphorylated Bcl-2, Bcl-XL, phosphorylated Bcl-xL and Bax were detected by western blot analysis; β-actin was used as a loading control in each lane. Representative data of three independent experiments are shown; (C) and (D) Grayscale analysis of the relative expression of apoptosis-related proteins detected by Western blotting. […] (E) Cells were exposed to 8a (20 μg/mL) and/or zVAD-FMK ([…]) for 24 h, and cell viability was measured by MTT assay. […]
# [2] = tested on: caspase 9, cleaved caspase 9, caspase 3, cleaved caspase 3; experiment: Western blot, caspases; settings: HCT116, western blot
# From the text: as §4
# The expression of signaling pathway-related proteins was detected by western blot analysis. Cell (1 × 10^6) were plated in 90-mm dishes and treated with 8a for 24 h. The cells were treated with NAC in the same way as in step 4.7. Resuspend the cells in Buffer A (1 mM EDTA, 1 mM PMSF, 0.28 μg/mL apotinin, 50 μg/mL leupeptin, 7 μg/mL pepstain A) and transferred to a 1 mL glass homogenizer and pull up and down 30 times in an ice bath. Cells were collected and centrifuged (1000 g × 10 min, 4 °C). […] Protein concentrations in the supernatant were determined by using a Minbio BCA protein assay kit. […]
# HCT116 = experiment: MTT cell proliferation assay, HCT116; settings: Homo sapiens, HCT-116, HCT116 colon cancer, 48 h
# Description: as §1, §2, §3
structure (smiles),measurement,setting,value
"CC(C)CC(NC(=O)c1ccc2c(c1[N+](=O)[O-])C(=O)c1ccccc1C2=O)C(=O)O (centres unmarked) [Compound 8a, N-[(9,10-dihydro-1-nitro-9,10-dioxo-2-anthracenyl)carbonyl-leucine]]","Green/orange fluorescence ratio of JC-1, compared with control",[1]; 10 μg/mL,200%
same,"Green/orange fluorescence ratio of JC-1, compared with control",[1]; 20 μg/mL,494.4%
same,mitochondrial membrane potential (in words),[1]; 10 or 20 μg/mL,decreased the mitochondrial membrane potential in a dose-dependent manner
same,IC50,SGC-7901,55.82 ± 0.16 mg/L
same,viability at 20 µg/mL,HCT116 cells,38%
same,expression of cleaved caspase 9 and cleaved caspase 3,[2],increased in a dose-dependent manner
same,caspase 9 and caspase 3 expression levels,[2]; with increasing 8a concentration,gradually decreased
same,IC50,HCT116,17.8 ± 0.03 mg/L
